Results reported in patent publication US6060304A, “Method of producing conjugated fatty acids” (Wisconsin Alumni Research Foundation, priority 1998, dated 2000).

Legend:
[1] = tested on: linoleate isomerase of L. reuteri PYR8; conditions: for Rate of converting: 36-hour PYR8 cells
Description: Fatty acids were extracted with chloroform:methanol (2:1) and 4% KCl. Hexadecanoic acid (HDA) was added as an internal standard. The extraction mix was centrifuged at 2000 g for 5 minutes, then the chloroform fraction containing the fatty acids (bottom fraction) was removed and dried down by nitrogen gas. The fatty acids were suspended in 4% HCl in anhydrous methanol, and were methylated in a 60° C. water bath for 20 minutes. Finally, drops of double distilled water (DDW) were added to the methylation tube and hexane was used to re-extract the fatty acid. After washing twice with DDW and dehydrating by sodium sulfate, 1-2 μl of the hexane fraction was injected into a model 5890 series II gas chromatograph fitted with a model 3396A integrator (Hewlett-Packard Company, Avondale, Pa.) for fatty acid analysis. Fatty acid peaks were separated with a fused silica capillary column, 60 m by […] I.D. with a 0.25 μm film thickness (Supelco Park, Bellefonte, Pa.).
Thirty-six-hour cultures were diluted in 0.1M Tris-HCl (pH 8.55) buffer to 1:10, 1:15, 1:20 (w/v). Five ml of each suspension were reacted with 2.0 mg of linoleic acid for 1, 2, or 3 hours at 12° C. At 1:15, five ml were incubated with 1.0 mg, 1.5 mg, 2.0 mg and 3.0 mg of alpha-linolenic acid for 1 hour, or with 2.0 mg of gamma-linolenic acid for 1, 2, 3, 4, or 24 hours at 4° C. Fatty acids were extracted with chloroform:methanol and assayed by the GC method.

[2] = tested on: linoleate isomerase of L. reuteri PYR8; assay: Substrates tested with cells of L. reuteri PYR8, product analysed by GC; format: biochemical, Lactobacillus reuteri PYR8 (ATCC 55739); conditions: for Major Products (putative) of the linoleate isomerase: 0.2 mg substrate reacted with 20 mg PYR8 cells, GC; for Activity of the organism / consumption relative to other substrates: effect of extra double bonds at position 6 and/or 15; for Activity as substrate of the Lactobacillus: unsaturated fatty acids lacking double bonds at both positions 9 and 12
Description: ^a Each substrate (0.2 mg) was reacted with the cells (20 mg) of L.
reuteri PYR8, and product was analyzed by GC, as described in methods.
Fatty acids were extracted with chloroform:methanol (2:1) and 4% KCl. Hexadecanoic acid (HDA) was added as an internal standard. […] Fatty acid peaks were separated with a fused silica capillary column, 60 m by […] I.D. with a 0.25 μm film thickness (Supelco Park, Bellefonte, Pa.).

mammary cancer = conditions: rodents; cited from earlier work
[3] = chicks, mice and rats; cited from earlier work
[4] = tested on: carcinogen-induced rat mammary tumors; conditions: cited from earlier work
[5] = tested on: epidermal carcinogenesis and forestomach neoplasia; conditions: mice; cited from earlier work
[6] = rabbits fed an atherogenic diet; cited from earlier work
atherosclerosis = conditions: rabbits and hamsters; cited from earlier work
[7] = mouse, rat and chick models; cited from earlier work

Molecule	Rate of converting [1]	Major Products (putative) of the linoleate isomerase [2]	Activity as substrate of the Lactobacillus [2]	further results
CCCCC/C=C\C/C=C\C/C=C\CCCCC(=O)O [Gamma-linolenic acid]	less than 0.25 mg/hour/gram cells	cis6, cis9, trans11		Conversion to cis-6, cis-9, trans-11 isomer in 24 hours ([1]; dilution 1:15, 2.0 mg substrate, 4° C.): unable to convert; Activity of the organism / consumption relative to other substrates [2]: reduced
CCCCC/C=C\C/C=C\CCCCCCCC(=O)O [Linoleic acid]	3.2 mg/hour/gram cells	cis9, trans11 isomer		Effect on mammary cancer (mammary cancer): associated with enhancing mammary cancer
CCCCC/C=C\C/C=C\C/C=C\C/C=C\CCCC(=O)O [Arachidonic acid]		None	Inactive	
Octadecanoic acid		None	Inactive	
CCCCCCCC/C=C\CCCCCCCC(=O)O [Oleic acid]		None	Inactive	
CC/C=C\C/C=C\C/C=C\CCCCCCCC(=O)O [Alpha-linolenic acid]	8.0 mg/hour/gram cells	cis9, trans11, cis15		Amount of substrate converted in one hour ([1]; dilution 1:15, five ml, 4° C.): 2.5 mg; Activity of the organism / consumption relative to other substrates [2]: promoted
Conjugated linoleic acid [CLA]				Prevention of adverse effects caused by immune stimulation [3]: can prevent adverse effects; Inhibition of carcinogen-induced mammary tumors [4]: effective inhibitor; Inhibition of epidermal carcinogenesis and forestomach neoplasia [5]: effective inhibitor; Ratio of LDL-cholesterol to HDL-cholesterol [6]: can decrease; Inhibition of atherosclerosis (atherosclerosis): inhibits atherosclerosis; Body fat [7]: reduces body fat
